Measured values reported in ChEMBL document CHEMBL5537135, “Novel antimicrobial peptides modified with fluorinated sulfono-γ-AA having high stability and targeting multidrug-resistant bacteria infections” (Eur J Med Chem, 2024).
Converted amounts (≈) assume the structure as drawn. The source made the active and inactive calls. The rule behind the calls is not given here. Numbered stars: 1 amine (or outer) side, 2 acyl side, 3 side chain; on linkers, the order of the positions; unused ones are H or OH. Square brackets hold non-standard residues; d marks the D form. Peptide text beside a SMILES is read from it. * marks the point of attachment. X3 = CC(C)C[C@@H](CN(CC(N)=O)S(=O)(=O)c1ccc(C(F)(F)F)cc1)N*; X2 = CC(C)C[C@H](N)CN(CC(=O)[*:2])[*:1]; X1 = O=S(=O)(c1ccc(C(F)(F)F)cc1)*

What was measured:
Cell membrane [1] = assay: Induction of membrane disruption in Pseudomonas aeruginosa ATCC 27853 assessed as membrane lysis at 2 to 4 times MIC incubated for 24 hrs by SEM analysis; format: cell membranes
[2] = Toxicity in mouse at 40 mg/kg, sc measured for 5 to 1440 mins; format: organism-based; details: in vivo, time 5-1440 min
Staphylococcus aureus [3] = assay: Antimicrobial activity against methicillin-resistant Staphylococcus aureus 3 assessed as inhibition of visible bacterial growth incubated for 18 hrs by broth-dilution method; format: functional
Staphylococcus aureus [4] = assay: Antimicrobial activity against methicillin-resistant Staphylococcus aureus 4 assessed as inhibition of visible bacterial growth incubated for 18 hrs by broth-dilution method; format: functional
Escherichia coli = assay: Antimicrobial activity against Escherichia coli ATCC 25922 assessed as inhibition of visible bacterial growth incubated for 18 hrs by broth-dilution method; format: functional
Pseudomonas aeruginosa [5] = assay: Bactericidal activity against Pseudomonas aeruginosa ATCC 27853 assessed as reduction in viable bacteria at 4 times MIC measured for 1 min by time-kill assay; format: functional, organism-based
[6] = Stability in human serum assessed as half life measured for 5 hrs by RP-HPLC analysis; format: ADME, cell-free
Pseudomonas aeruginosa [7] = assay: Bactericidal activity against Pseudomonas aeruginosa ATCC 27853 at 1 to 4 times MIC by time-kill assay; format: functional, organism-based
Cell membrane [8] = assay: Induction of membrane disruption in Pseudomonas aeruginosa ATCC 27853 assessed as membrane shrinkage at 2 to 4 times MIC incubated for 24 hrs by SEM analysis; format: cell membranes
Staphylococcus aureus [9] = assay: Antibacterial activity against methicillin-resistant Staphylococcus aureus ATCC 33591 infected in full-thickness wound BALB/c mouse model at 0.25 to 1 mg/kg, ip administered for 1 to 48 hrs and measured after 3 days; format: functional, organism-based; details: dose 0.25-1 mg/kg, time 1-120 hrs
[10] = Toxicity in mouse assessed as liver lesion at 20 mg/kg, ip measured for 30 to 60 mins by H and E staining based analysis; format: organism-based; details: in vivo, time 30-60 min
Staphylococcus aureus [11] = assay: Antibacterial activity against methicillin-resistant Staphylococcus aureus ATCC 33591 infected in full-thickness wound BALB/c mouse model assessed as reduction in TNF-alpha level in skin at 0.25 to 1 mg/kg, ip administered for 1 to 48 hrs and measured after 3 days; format: functional, organism-based; details: dose 0.25-1 mg/kg, time 1-120 hrs
[12] = Toxicity in mouse assessed as lung lesion at 20 mg/kg, ip measured for 30 to 60 mins by H and E staining based analysis; format: organism-based; details: in vivo, time 30-60 min
Staphylococcus aureus [13] = assay: Antimicrobial activity against Staphylococcus aureus ATCC 25923 assessed as inhibition of visible bacterial growth incubated for 18 hrs by broth-dilution method; format: functional
Pseudomonas aeruginosa [14] = assay: Antibacterial activity against Pseudomonas aeruginosa ATCC 27853 infected in C57BL/6 mouse pneumonia model assessed as decrease in IL-6 level in lung at 2.5 to 10 mg/kg, ip administered for 1 to 48 hrs and measured after 3 days; format: functional, organism-based; details: dose 2.5-10 mg/kg, time 1-120 hrs
Staphylococcus aureus [15] = assay: Synergistic antibacterial activity against methicillin-resistant Staphylococcus aureus S5 assessed as fractional inhibitory concentration index in presence of vancomycin by checkerboard assay; format: functional
Staphylococcus aureus [16] = assay: Antibacterial activity against methicillin-resistant Staphylococcus aureus ATCC 33591 infected in full-thickness wound BALB/c mouse model assessed as log reduction in bacterial load at 0.25 mg/kg, ip administered for 1 to 48 hrs and measured after 3 days by SEM analysis; format: functional; details: time 1-120 hrs
Pseudomonas aeruginosa [17] = assay: Antibiofilm activity against Pseudomonas aeruginosa ATCC 27853 assessed as biofilm thickness at 8 microg/ml incubated for 24 hrs by confocal laser scanning microscopic analysis; format: functional; details: dose 8 µg/ml
Staphylococcus aureus [18] = assay: Antibiofilm activity against methicillin-resistant Staphylococcus aureus ATCC 33591 assessed as biofilm eradication at 4 times MIC incubated for 2 hrs by crystal violet staining based assay; format: functional, organism-based
Pseudomonas aeruginosa [19] = assay: Induction of intracellular ROS accumulation in Pseudomonas aeruginosa ATCC 27853 by DCFH-DA dye based fluorescence assay; format: functional, organism-based
Staphylococcus aureus [20] = assay: Antibacterial activity against drug-susceptible Staphylococcus aureus ATCC 33591 assessed as reduction in microbial growth; format: functional
Cell membrane [21] = assay: Induction of outer membrane permeabilization in Pseudomonas aeruginosa ATCC 27853 assessed as increase in NPN uptake measured upto 20 mins by NPN-dye based fluorescence analysis
Cell membrane [22] = assay: Induction of membrane depolarization in methicillin-resistant Staphylococcus aureus ATCC 33591 assessed as increase in fluorescence intensity by DiSC35 dye-based fluorescence assay; format: cell membranes
Staphylococcus aureus [23] = assay: Antibiofilm activity against methicillin-resistant Staphylococcus aureus ATCC 33591 assessed as biofilm eradication at 4 times MIC incubated for 2 to 4 hrs by crystal violet staining based assay; format: functional, organism-based; details: time 2-4 hrs
Staphylococcus aureus [24] = assay: Antibiofilm activity against methicillin-resistant Staphylococcus aureus ATCC 33591 assessed as biofilm thickness at 8 microg/ml incubated for 24 hrs by confocal laser scanning microscopic analysis; format: functional; details: dose 8 µg/ml
Staphylococcus aureus [25] = assay: Antimicrobial activity against Staphylococcus aureus ATCC 25923 assessed as fold change in MIC in presence of salt solution; format: functional
Pseudomonas aeruginosa [26] = assay: Antibiofilm activity against Pseudomonas aeruginosa ATCC 27853 assessed as biofilm thickness at 1 times MIC90 incubated for 24 hrs by confocal laser scanning microscopic analysis; format: functional
Staphylococcus aureus [27] = assay: Antimicrobial activity against methicillin-resistant Staphylococcus aureus 7 assessed as inhibition of visible bacterial growth incubated for 18 hrs by broth-dilution method; format: functional
Pseudomonas aeruginosa [28] = assay: Antimicrobial activity against multidrug-resistant Pseudomonas aeruginosa 073 assessed as inhibition of visible bacterial growth incubated for 18 hrs by broth-dilution method; format: functional
Staphylococcus aureus [29] = assay: Antimicrobial activity against methicillin-resistant Staphylococcus aureus 8 assessed as inhibition of visible bacterial growth incubated for 18 hrs by broth-dilution method; format: functional
Pseudomonas aeruginosa [30] = assay: Antibacterial activity against Pseudomonas aeruginosa ATCC 27853 infected in C57BL/6 mouse pneumonia model assessed as […] at 2.5 to 10 mg/kg, ip administered for 1 to 48 hrs and measured after 3 days by H and E staining based analysis; format: functional, organism-based; details: dose 2.5-10 mg/kg, time 1-120 hrs
Pseudomonas aeruginosa [31] = assay: Antibiofilm activity against Pseudomonas aeruginosa ATCC 27853 assessed as biofilm eradication at 4 times MIC incubated for 1 hr by crystal violet staining based assay; format: functional, organism-based
Staphylococcus aureus [32] = assay: Antibacterial activity against methicillin-resistant Staphylococcus aureus ATCC 33591 infected in full-thickness wound BALB/c mouse model assessed as reduction in IL-6 level in skin at 0.25 to 1 mg/kg, ip administered for 1 to 48 hrs and measured after 3 days; format: functional, organism-based; details: dose 0.25-1 mg/kg, time 1-120 hrs
Bacillus subtilis = assay: Antimicrobial activity against Bacillus subtilis ATCC 23857 assessed as inhibition of visible bacterial growth incubated for 18 hrs by broth-dilution method; format: functional
Pseudomonas aeruginosa [33] = assay: Antibacterial activity against drug-susceptible Pseudomonas aeruginosa […] assessed as reduction in microbial growth; format: functional
Pseudomonas aeruginosa [34] = assay: Synergistic antibacterial activity against multidrug-resistant Pseudomonas aeruginosa 124 assessed as fractional inhibitory concentration index in presence of ceftazidime by checkerboard assay; format: functional
Cell membrane [35] = assay: Induction of cytoplasmic membrane depolarization in methicillin-resistant Staphylococcus aureus ATCC 33591 assessed as increase in fluorescence intensity at 2 times MIC by DiSC35 dye-based fluorescence assay
Pseudomonas aeruginosa [36] = assay: Synergistic antibacterial activity against multidrug-resistant Pseudomonas aeruginosa 124 assessed as fractional inhibitory concentration index in presence of polymyxin B by checkerboard assay; format: functional

Row | Compound | MIC (Staphylococcus aureus [3]) | MIC (Staphylococcus aureus [4]) | MIC (Escherichia coli) | half-life [6] | Activity (Pseudomonas aeruginosa [7]) | MIC (Staphylococcus aureus [13]) | Activity (Pseudomonas aeruginosa [17]) | Activity (Staphylococcus aureus [18]) | Activity (Pseudomonas aeruginosa [19]) | MIC (Staphylococcus aureus [20]) | Activity (Cell membrane [21]) | Activity (Staphylococcus aureus [23]) | Activity (Staphylococcus aureus [24]) | fold change (FC) (Staphylococcus aureus [25]) | Activity (Pseudomonas aeruginosa [26]) | MIC (Staphylococcus aureus [27]) | MIC (Pseudomonas aeruginosa [28]) | MIC (Staphylococcus aureus [29]) | Activity (Pseudomonas aeruginosa [31]) | MIC (Bacillus subtilis) | also measured
1 | CC(C)C[C@H](N)CN(CC(=O)N[C@@H](CCCCN)C(=O)N[C@@H](CC(C)C)C(=O)N[C@@H](CC(C)C)C(=O)N[C@@H](CCCCN)C(=O)N[C@@H](CCCCN)C(=O)N[C@@H](CC(C)C)C(=O)N[C@@H](CC(C)C)C(N)=O)S(=O)(=O)c1ccc(C(F)(F)F)cc1 (X1-[X2]KLLKKLL-NH2) | 4 mg/L (≈ 3.28 µM) | 4 mg/L (≈ 3.28 µM) | 16 mg/L (≈ 13.1 µM) | 9.22 h | Active | 4 mg/L (≈ 3.28 µM) | 20 um | Active | Active | 4 mg/L | Dose-Dependent Effect | Active | 20 um | 0.25 | 40 um | 4 mg/L (≈ 3.28 µM) | 8 mg/L (≈ 6.56 µM) | 4 mg/L (≈ 3.28 µM) | Active | 4 mg/L (≈ 3.28 µM) | Activity (Cell membrane [1]): Active; Activity [2]: Non-Toxic; Activity (Pseudomonas aeruginosa [5]): Active; Activity (Cell membrane [8]): Active; Activity (Staphylococcus aureus [9]): Active; Activity [10]: Non-Toxic; Activity (Staphylococcus aureus [11]): Active; Activity [12]: Non-Toxic; Activity (Pseudomonas aeruginosa [14]): Active; fractional inhibitory concentration index (FICI) (Staphylococcus aureus [15]): 2; log(activity) (Staphylococcus aureus [16]): 0.82; Activity (Cell membrane [22]): Dose-Dependent Effect; Activity (Pseudomonas aeruginosa [30]): Active; Activity (Staphylococcus aureus [32]): Active; MIC (Pseudomonas aeruginosa [33]): 4 mg/L
2 | CC(C)C[C@@H](CN(CC(N)=O)S(=O)(=O)c1ccc(C(F)(F)F)cc1)NC(=O)[C@H](CCCCN)NC(=O)[C@H](CCCCN)NC(=O)[C@H](CC(C)C)NC(=O)[C@H](CC(C)C)NC(=O)[C@H](CCCCN)NC(=O)[C@H](CC(C)C)NC(=O)[C@@H](N)Cc1ccccc1 (H-FLKLLKK-X3) | 4 mg/L (≈ 3.19 µM) | 8 mg/L (≈ 6.39 µM) | 16 mg/L (≈ 12.8 µM) | 2.96 h | Active | 4 mg/L (≈ 3.19 µM) | 20 um | Active | Active | 4 mg/L | Dose-Dependent Effect | Active | 20 um | 0.25 | 40 um | 8 mg/L (≈ 6.39 µM) | 16 mg/L (≈ 12.8 µM) | 4 mg/L (≈ 3.19 µM) | Active | 4 mg/L (≈ 3.19 µM) | fractional inhibitory concentration index (FICI) (Pseudomonas aeruginosa [34]): 0.75; Activity (Cell membrane [35]): Active; fractional inhibitory concentration index (FICI) (Pseudomonas aeruginosa [36]): 0.75; MIC (Pseudomonas aeruginosa [33]): 4 mg/L
